Experimental data as given in PubChem BioAssay (NCI).
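All cell lines were grown in 96-well plates and treated with compound for 48 hours. Here, GI50 denotes the concentration required for 50% inhibition of growth. Definition used: TGI = concentration required for complete inhibition of growth.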

Assays:
Assay in all cases: NCI anticancer screen, dose series, 48 h
SK-MEL-28 melanoma = test system: SK-MEL-28 melanoma
OVCAR-8 ovarian = test system: OVCAR-8 ovarian
SN12C renal = test system: SN12C renal
SF-295 CNS = test system: SF-295 CNS
NCI-H522 lung = test system: NCI-H522 lung
OVCAR-4 ovarian = test system: OVCAR-4 ovarian
DU-145 prostate = test system: DU-145 prostate
SK-MEL-2 melanoma = test system: SK-MEL-2 melanoma
EKVX NSCLC = test system: EKVX NSCLC
HCT-15 colon = test system: HCT-15 colon

SMILES	GI50 (SK-MEL-28 melanoma) [µM]	TGI (SK-MEL-28 melanoma) [µM]	GI50 (OVCAR-8 ovarian) [µM]	TGI (OVCAR-8 ovarian) [µM]	GI50 (SN12C renal) [µM]	TGI (SN12C renal) [µM]	GI50 (SF-295 CNS) [µM]	TGI (SF-295 CNS) [µM]	GI50 (NCI-H522 lung) [µM]	TGI (NCI-H522 lung) [µM]	GI50 (OVCAR-4 ovarian) [µM]	TGI (OVCAR-4 ovarian) [µM]	GI50 (DU-145 prostate) [µM]	TGI (DU-145 prostate) [µM]	GI50 (SK-MEL-2 melanoma) [µM]	TGI (SK-MEL-2 melanoma) [µM]	GI50 (EKVX NSCLC) [µM]	TGI (EKVX NSCLC) [µM]	GI50 (HCT-15 colon) [µM]	TGI (HCT-15 colon) [µM]
C#C[C@]1(O)CC[C@H]2[C@@H]3CC=C4c5nc(Nc6ccc(OC)cc6OC)sc5CC[C@]4(C)[C@H]3CC[C@@]21C	0.712	2.7	3.2	> 100	3.36	19.2	0.249	0.613	2.22	5.79	4.44	> 100	2.32	10.8	1.23	6.39	2.66	17.8	1.3	4.2
COCCOC(C)C(/C=N/NC(N)=S)=N/NC(N)=S (centres undefined)	> 100	> 100	> 100	> 100	> 100	> 100		> 100	> 100	> 100	0.0355	> 100	> 100	> 100	> 100	> 100	0.0905	> 100	> 100	> 100
COc1cc(/C=C2\C(=O)N(c3c(Cl)cccc3Cl)c3ccccc32)cc(OC)c1O	1.25	13.5	0.442	19.8	1.01	17.6	0.702	16.7	0.501	4.01	1.69	12.1	0.663	6.13	1.23	15.4	5.23	25.1	0.0682	11.2
O=C(Oc1ccc([N+](=O)[O-])cc1)N1CCC(C(O)(c2ccc3c(c2)OCO3)c2ccc3c(c2)OCO3)CC1	> 100	> 100	> 100	> 100	> 100	> 100	> 100	> 100	> 100	> 100	> 100	> 100	> 100	> 100	> 100	> 100	> 100	> 100	> 100	> 100
N#Cc1ccc(-n2cnc(NC(=O)[C@H]3CCN(C#N)C3)c2)cc1	2.64	> 100	1.92	> 100	2.72	> 70.3	2.79	> 66.3	0.567	4.43	1.86	12.5	1.52	49.4	0.935	4.09	2.38	10.1	2.2	> 100
COc1ccc2[nH]cc(/C=C3\C(=O)Nc4ccccc43)c2c1	10.5	42	7.02	21.8	7.37	39.9	10.8	30	4.59	19.6	6.21	60.3	5.2	22.3	10.2	29.2	2.73	15.1	3.86	17.5
